pIC50: −log10 of the molar value.
Experiments:
[1] = biological target: T1, acid ceramidase (aCDase) (Homo sapiens, UniProt Q13510); assay: micellar aCDase assay at […] inhibitor, recombinant human enzyme; type: biochemical
T1 construct: gene ASAH1
T1 sequence (Q13510 22-142): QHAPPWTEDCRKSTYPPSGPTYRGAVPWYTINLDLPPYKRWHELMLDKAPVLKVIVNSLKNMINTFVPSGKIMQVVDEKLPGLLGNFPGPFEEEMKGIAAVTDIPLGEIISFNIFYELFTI
T1 sequence (Q13510 143-395): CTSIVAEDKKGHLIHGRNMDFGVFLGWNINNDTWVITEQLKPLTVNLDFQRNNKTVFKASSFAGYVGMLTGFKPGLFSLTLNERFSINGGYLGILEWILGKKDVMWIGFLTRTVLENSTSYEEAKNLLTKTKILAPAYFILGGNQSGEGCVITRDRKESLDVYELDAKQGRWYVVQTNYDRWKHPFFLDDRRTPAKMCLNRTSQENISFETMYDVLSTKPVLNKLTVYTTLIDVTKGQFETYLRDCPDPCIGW

[2] = biological target: T1, acid ceramidase (aCDase); assay: micellar aCDase assay with recombinant human enzyme, HPLC fluorescence detection of sphingosine; type: biochemical

Row | pIC50 [2] | Compound | micellar aCDase assay at 2.5 μM inhibitor, recombinant human enzyme [1]
1 |  | CCCCCCCCCCCCCC(=O)NCC(O)c1cccnc1 (racemic) [DP24c, N-(2-Hydroxy-2-(Pyridin-3-yl)-Ethyl)Tetradecanamide] | Although DP24c provides a basic moiety, it showed at least the same inhibition as DP24a or DP24b
2 |  | CCCCCCCCCCCCCCNC(=O)NCC(O)c1ccccc1 (racemic) [DP25a, 1-(2-Hydroxy-2-Phenylethyl)-3-Tetradecylurea] | Evaluation in the aCDase assay revealed only a slightly better inhibition
3 | 5.89 | CCCCCCCCCCCCCC(=O)NCC(O)c1ccccc1 (racemic) [DP24a, N-(2-Hydroxy-2-Phenylethyl)-Tetradecanamide] | 
4 |  | CCCCCCCCCCCCCCNC(=O)NCC(O)c1cccnc1 (racemic) [DP25c, 1-(2-Hydroxy-2-(Pyridin-3-yl)Ethyl)-3-Tetradecylurea] | Evaluation in the aCDase assay revealed only a slightly better inhibition
